Converted amounts (≈) assume the structure as drawn.

What all share (assay type): functional
Test [1] relates to Staphylococcus aureus. In words: Antimicrobial activity against Staphylococcus aureus ATCC 25923 assessed as inhibition of microbial growth incubated for 24 hrs by broth dilution method. Particulars: ATCC 25923, 24 h.
Test [2] concerns Pseudomonas aeruginosa. In words: Antimicrobial activity against Pseudomonas aeruginosa ATCC 10145 assessed as inhibition of microbial growth incubated for 24 hrs by broth dilution method. To be noted: ATCC 10145, 24 h.
In a further test the test system is Candida tropicalis. In words: Antimicrobial activity against Candida tropicalis ATCC 750 assessed as inhibition of microbial growth incubated for 72 hrs by broth dilution method. Particulars: ATCC 750, 72 h.
The test system of the next test is Candida albicans. In words: Antimicrobial activity against Candida albicans ATCC 10231 assessed as inhibition of microbial growth incubated for 72 hrs by broth dilution method. To be noted: ATCC 10231, 72 h.
The subject of test [3] is Bacillus subtilis. In words: Antimicrobial activity against Bacillus subtilis ATCC 6633 assessed as inhibition of microbial growth incubated for 24 hrs by broth dilution method. To be noted: ATCC 6633, 24 h.
In another test the test system is Klebsiella pneumoniae. The experiment in a line: Antimicrobial activity against Klebsiella pneumoniae ATCC 10031 assessed as inhibition of microbial growth incubated for 24 hrs by broth dilution method. To be noted: ATCC 10031, 24 h.
Test [4] concerns Escherichia coli. In words: Antimicrobial activity against Escherichia coli ATCC 10536 assessed as inhibition of microbial growth incubated for 24 hrs by broth dilution method. Particulars: ATCC 10536, 24 h.
Test [5] relates to Staphylococcus aureus. The experiment in a line: Bactericidal activity against Staphylococcus aureus ATCC 25923 assessed as microbial killing during 18 hrs post sub-culture onto drug-free solid media by broth dilution method. To be noted: ATCC 25923, 18 h, read-out: MBC99.9.
For test [6], the system named is Escherichia coli. The experiment in a line: Bactericidal activity against Escherichia coli ATCC 10536 assessed as microbial killing during 18 hrs post sub-culture onto drug-free solid media by broth dilution method. Particulars: ATCC 10536, 18 h, read-out: MBC99.9.
Test [7] concerns Bacillus subtilis. In words: Bactericidal activity against Bacillus subtilis ATCC 6633 assessed as microbial killing during 18 hrs post sub-culture onto drug-free solid media by broth dilution method. Particulars: ATCC 6633, 18 h, read-out: MBC99.9.
For test [8], the system named is Pseudomonas aeruginosa. The experiment in a line: Bactericidal activity against Pseudomonas aeruginosa ATCC 10145 assessed as microbial killing during 18 hrs post sub-culture onto drug-free solid media by broth dilution method. Particulars: ATCC 10145, 18 h, read-out: MBC99.9.

Regarding `O=c1c(O)c(-c2ccccc2O)oc2ccc(Br)cc12`, the MIC in the test with Staphylococcus aureus [1] was 0.152 µM; with Pseudomonas aeruginosa [2] it was 0.12 µM; with Candida tropicalis, above 0.602 µM; with Candida albicans, above 0.602 µM; in the test on Bacillus subtilis [3] it was 0.167 µM; in the test with Klebsiella pneumoniae, 0.135 µM. In the test with Escherichia coli [4], the MIC was 0.135 µM.
With `O=c1c2c(oc3ccc(Cl)cc13)-c1ccccc1OCCCO2`, the MIC with Staphylococcus aureus [1] is 0.092 µM; in the test with Pseudomonas aeruginosa [2], 0.06 µM; with Candida tropicalis, above 0.609 µM; in the test with Candida albicans, above 0.609 µM; in the test with Bacillus subtilis [3], 0.077 µM; in the test with Klebsiella pneumoniae it was 0.106 µM. In the test on Escherichia coli [4], the MIC was determined as 0.045 µM. Also, the MBC with Staphylococcus aureus [5] was 0.051 µM (≈ 0.0168 µg/mL); with Escherichia coli [6] it was 0.03 µM (≈ 0.00986 µg/mL); in the test on Bacillus subtilis [7] it was 0.075 µM (≈ 0.0247 µg/mL); in the test on Pseudomonas aeruginosa [8], 0.03 µM (≈ 0.00986 µg/mL).
`O=c1c2c(oc3ccc(Cl)cc13)-c1ccccc1OCCCCCO2`: the MIC was 0.14 µM in the test with Staphylococcus aureus [1]; 0.07 µM with Pseudomonas aeruginosa [2]; above 0.561 µM in the test with Candida tropicalis; above 0.561 µM in the test with Candida albicans; 0.028 µM in the test with Bacillus subtilis [3]; 0.028 µM with Klebsiella pneumoniae. Moreover, in the test with Escherichia coli [4], the MIC was 0.057 µM. Further, the MBC in the test with Staphylococcus aureus [5] is 0.088 µM (≈ 0.0314 µg/mL); in the test on Escherichia coli [6], 0.034 µM (≈ 0.0121 µg/mL); in the test with Bacillus subtilis [7], 0.014 µM (≈ 0.005 µg/mL); in the test with Pseudomonas aeruginosa [8], 0.028 µM (≈ 0.00999 µg/mL).
In the case of `O=c1c2c(oc3ccc(Br)cc13)-c1ccccc1OCCCO2`, the MIC was 0.053 µM in the test on Staphylococcus aureus [1]; 0.04 µM with Pseudomonas aeruginosa [2]; above 0.537 µM in the test with Candida tropicalis; above 0.537 µM with Candida albicans; 0.04 µM in the test with Bacillus subtilis [3]; 0.026 µM with Klebsiella pneumoniae. Moreover, the MIC in the test on Escherichia coli [4] is 0.032 µM. Besides, the MBC was 0.025 µM (≈ 0.00933 µg/mL) in the test with Staphylococcus aureus [5], 0.027 µM (≈ 0.0101 µg/mL) with Escherichia coli [6], 0.025 µM (≈ 0.00933 µg/mL) in the test with Bacillus subtilis [7] and 0.037 µM (≈ 0.0138 µg/mL) in the test with Pseudomonas aeruginosa [8].
As to `O=c1c2c(oc3ccc(F)cc13)-c1ccccc1OCCCCO2`, the MIC in the test on Staphylococcus aureus [1] was 0.153 µM; with Pseudomonas aeruginosa [2], 0.076 µM; in the test on Candida tropicalis, above 0.613 µM; in the test on Candida albicans it was above 0.613 µM; with Bacillus subtilis [3] it was 0.092 µM; in the test with Klebsiella pneumoniae, 0.046 µM. Moreover, the MIC with Escherichia coli [4] is 0.062 µM. Besides, the MBC came to 0.081 µM (≈ 0.0264 µg/mL) with Staphylococcus aureus [5], 0.055 µM (≈ 0.0179 µg/mL) in the test on Escherichia coli [6], 0.04 µM (≈ 0.0131 µg/mL) with Bacillus subtilis [7] and 0.03 µM (≈ 0.00979 µg/mL) in the test with Pseudomonas aeruginosa [8].
Regarding `O=c1c2c(oc3ccc(Cl)cc13)-c1ccccc1OCCO2`, the MIC in the test with Staphylococcus aureus [1] was 0.033 µM; with Pseudomonas aeruginosa [2], 0.063 µM; in the test on Candida tropicalis it was above 0.636 µM; in the test on Candida albicans, above 0.636 µM; in the test with Bacillus subtilis [3], 0.065 µM; with Klebsiella pneumoniae, 0.047 µM. Further, in the test on Escherichia coli [4], the MIC came out at 0.047 µM. Moreover, the MBC with Staphylococcus aureus [5] worked out at 0.033 µM (≈ 0.0104 µg/mL); in the test on Escherichia coli [6] it was 0.027 µM (≈ 0.0085 µg/mL); in the test on Bacillus subtilis [7] it was 0.035 µM (≈ 0.011 µg/mL); in the test on Pseudomonas aeruginosa [8], 0.063 µM (≈ 0.0198 µg/mL).
As to `O=c1c2c(oc3ccc(F)cc13)-c1ccccc1OCCCO2`, the MIC in the test on Staphylococcus aureus [1] is 0.129 µM; in the test on Pseudomonas aeruginosa [2] it was 0.064 µM; in the test with Candida tropicalis it was above 0.641 µM; in the test with Candida albicans, above 0.641 µM; with Bacillus subtilis [3] it was 0.081 µM; with Klebsiella pneumoniae, 0.112 µM. Also, the MIC in the test on Escherichia coli [4] came to 0.16 µM. The MBC stood at 0.116 µM (≈ 0.0362 µg/mL) with Staphylococcus aureus [5], 0.096 µM (≈ 0.03 µg/mL) in the test with Escherichia coli [6], 0.032 µM (≈ 0.00999 µg/mL) in the test with Bacillus subtilis [7] and 0.032 µM (≈ 0.00999 µg/mL) in the test with Pseudomonas aeruginosa [8].
Consider `O=c1c2c(oc3ccccc13)-c1ccccc1OCCCCO2`, for which the MIC is 0.097 µM with Staphylococcus aureus [1]; 0.113 µM in the test on Pseudomonas aeruginosa [2]; above 0.649 µM in the test on Candida tropicalis; above 0.649 µM in the test on Candida albicans; 0.064 µM in the test on Bacillus subtilis [3]; 0.064 µM with Klebsiella pneumoniae. Moreover, in the test on Escherichia coli [4], the MIC turned out to be 0.146 µM. Besides, the MBC was determined as 0.059 µM (≈ 0.0182 µg/mL) with Staphylococcus aureus [5], 0.072 µM (≈ 0.0222 µg/mL) in the test with Escherichia coli [6], 0.064 µM (≈ 0.0197 µg/mL) with Bacillus subtilis [7] and 0.082 µM (≈ 0.0253 µg/mL) in the test on Pseudomonas aeruginosa [8].
As to `O=c1c2c(oc3ccccc13)-c1ccccc1OCCCO2`, the MIC is 0.272 µM with Staphylococcus aureus [1]; 0.136 µM with Pseudomonas aeruginosa [2]; above 0.68 µM in the test with Candida tropicalis; above 0.68 µM with Candida albicans; 0.085 µM with Bacillus subtilis [3]; 0.102 µM with Klebsiella pneumoniae. Also, in the test on Escherichia coli [4], the MIC is 0.051 µM. In addition, the MBC in the test on Staphylococcus aureus [5] stood at 0.136 µM (≈ 0.04 µg/mL); with Escherichia coli [6] it was 0.052 µM (≈ 0.0153 µg/mL); with Bacillus subtilis [7] it was 0.034 µM (≈ 0.01 µg/mL); in the test with Pseudomonas aeruginosa [8], 0.084 µM (≈ 0.0247 µg/mL).
Take `O=c1c2c(oc3ccccc13)-c1ccccc1OCCCCCO2`: the MIC with Staphylococcus aureus [1] is 0.155 µM; with Pseudomonas aeruginosa [2] it was 0.062 µM; in the test on Candida tropicalis, above 0.621 µM; in the test on Candida albicans it was above 0.621 µM; in the test with Bacillus subtilis [3], 0.186 µM; in the test with Klebsiella pneumoniae, 0.077 µM. Besides, the MIC in the test with Escherichia coli [4] came to 0.063 µM. Also, the MBC in the test with Staphylococcus aureus [5] was 0.154 µM (≈ 0.0496 µg/mL); with Escherichia coli [6] it was 0.059 µM (≈ 0.019 µg/mL); in the test with Bacillus subtilis [7] it was 0.159 µM (≈ 0.0513 µg/mL); in the test on Pseudomonas aeruginosa [8], 0.089 µM (≈ 0.0287 µg/mL).

These data come from ChEMBL document CHEMBL3392983, “Synthesis, antimicrobial activity and molecular docking of novel tetracyclic scaffolds incorporating a flavonoid framework with medium sized oxygen heterocycles” (2015).
